Test results as given in patent US20060258632A1, “Methods and agents for treating cardiovascular diseases” (Fraunhofer-Gesellschaft zur Forderung der angewandten …, priority 2002, published 2006).

Key:
[1] = tested on: androgen receptor expression; assay: Androgen receptor expression in cultivated rat heart muscle cells (real-time RT-PCR); format: cell-based; conditions: testosterone added to culture medium (100 μM); isolated rat heart muscle cells; FIG. 5c
Experimental: (§1) Total RNA was isolated from heart tissue using the Total RNA Isolation Kit (Macherey-Nagel, Germany) according to the manufacturer's instructions. The quality of the isolated RNA was assessed by evaluating the ribosomal bands on agarose gel (1%). Of each sample, 2 μg RNA was used for reverse transcription. RNA and random primer (Roche Diagnostics, Mannheim, Germany) were preheated at 70° C. for 10 min. and subsequently incubated with 5×RT-AMV buffer (Roche Diagnostics, Mannheim, Germany), dNTPs (1 mM; Roche Diagnostics, Mannheim, Germany), 40U RNAse inhibitor (Stratagene, Amsterdam, Netherlands) and 20U AMV-RT (Promega, Mannheim, Germany) at a total volume of 20 μl for 60 min. at 42° C. […]
(§2) The studies were conducted With a lightcyler (Roche Diagnostics, Mannheim, Germany). […] By the end of each extension phase, fluorescence was measured to be used for evaluation. To guarantee that no unspecific primer dimers are measured, fluorescence detection was conducted above the temperature characteristic of primer dimers (as assessed in preliminary studies). Amplification was followed by a melting curve analysis, measuring fluorescence by slowly increasing the temperature of the DNA synthesis products from 65° C. to 95° C. […] The exact amount of the obtained PCR product was determined by co-amplification of standardized cardiac cDNA and according to the manufacturer's instructions. […]

alpha-MHC expression = conditions: testosterone substitution (100 μM, 8 h); rat heart muscle cells; FIGS. 7 and 8
Experimental: as §1, §2

[2] = tested on: 5-alpha steroid reductase; assay: Testosterone metabolism in human and rat heart microsomal suspensions (HPLC of metabolites); format: biochemical; conditions: FIG. 3

| SMILES | androgen receptor expression [1] | alpha-MHC expression (alpha-MHC expression) | 5-alpha-DHT production decreased ([2]; finasteride 25 μM, heart microsomes, 100 μM testosterone, 4 h at 37° C.) | production of dihydrotestosterone in the heart tissue ([2]; inhibition of 5-alpha reductase) |
| --- | --- | --- | --- | --- |
| C[C@]12CC[C@H]3[C@@H](CCC4=CC(=O)CC[C@@]43C)[C@@H]1CC[C@@H]2O [testosterone] | reduces and normalizes | normalization |  |  |
| CC(C)(C)NC(=O)[C@H]1CC[C@H]2[C@@H]3CC[C@H]4NC(=O)C=C[C@]4(C)[C@H]3CC[C@]12C [finasteride] |  |  | 60% | reduced and normalized |
